Columns and labels:
VEEV TC83 = test: microbe, parasite or virus in culture; assay type: cell-based; conditions: Venezuelan equine encephalitis virus, Vero 76, 48 h, read-out: VEEV TC83 EC50 nM
WEEV California = test: microbe, parasite or virus in culture; assay type: cell-based; conditions: Western equine encephalitis virus, Vero 76, 48 h, read-out: WEEV California EC50 nM

SMILES | EC50 (VEEV TC83) [nM] | EC50 (WEEV California) [nM]
COc1ccc(-n2c([C@@H]3CCCN3)nc3c(-c4cccnc4)cc([N+](=O)[O-])cc3c2=O)cc1F [Example 83, (S)-3-(3-fluoro-4-methoxyphenyl)-6-nitro-8-(pyridin-3-yl)-2-(pyrrolidin-2-yl) quinazolin-4 (3H)-one] | 1 to 50 | 1 to 50
COc1ccc(-n2c([C@@H]3CCNC3)nc3c(C)cc([N+](=O)[O-])cc3c2=O)cc1F [Example 67, (R)-3-(3-fluoro-4-methoxyphenyl)-8-methyl-6-nitro-2-(pyrrolidin-3-yl) quinazolin-4 (3H)-one] | 151 to 500 | 151 to 500
COc1ccc(-n2c([C@H]3CC(=O)CN3)nc3c(-c4ccc(C)nc4)cc(C#N)cc3c2=O)cc1F [Example 186, (R)-3-(3-fluoro-4-methoxyphenyl)-8-(6-methylpyridin-3-yl)-4-oxo-2-(4-oxopyrrolidin-2-yl)-3,4-dihydroquinazoline-6-carbonitrile] | 151 to 500 | 501 to 1000
COc1ccc(-n2c(C3CCCN3C)nc3c(-c4ccc(C)nc4)cc(C#N)cc3c2=O)cc1F (stereo not drawn) [Example 111, 3-(3-fluoro-4-methoxyphenyl)-8-(6-methylpyridin-3-yl)-2-(1-methylpyrrolidin-2-yl)-4-oxo-3,4-dihydroquinazoline-6-carbonitrile] | 1 to 50 | 1 to 50
COc1ccc(-n2c([C@H]3CCCN3)nc3c(-c4cncc(F)c4)cc([N+](=O)[O-])cc3c2=O)cc1F [Example 93, (R)-3-(3-fluoro-4-methoxyphenyl)-8-(5-fluoropyridin-3-yl)-6-nitro-2-(pyrrolidin-2-yl) quinazolin-4 (3H)-one] | 1 to 50 | 1 to 50
COc1ccc(-n2c([C@H]3CCCN3)nc3c(-c4cccnc4)cc([N+](=O)[O-])cc3c2=O)cc1 [Example 85, (R)-3-(4-methoxyphenyl)-6-nitro-8-(pyridin-3-yl)-2-(pyrrolidin-2-yl) quinazolin-4 (3H)-one] | 1 to 50 | 1 to 50
N#Cc1ccccc1-n1c([C@H]2CCCN2)nc2ccc([N+](=O)[O-])cc2c1=O [Example 22, (R)-2-(6-nitro-4-oxo-2-(pyrrolidin-2-yl)quinazolin-3 (4H)-yl)benzonitrile] | > 1000 | > 1000
O=c1c2cc([N+](=O)[O-])ccc2nc([C@@H]2CCCN2)n1-c1ccccc1 [Example 5, (S)-6-nitro-3-phenyl-2-(pyrrolidin-2-yl) quinazolin-4 (3H)-one] | 151 to 500 | 151 to 500
COc1ccc(-n2c([C@H]3CC(F)(F)CN3)nc3c(-c4ccc(C)nc4)cc(C#N)cc3c2=O)cc1F [Example 184, (R)-2-(4,4-difluoropyrrolidin-2-yl)-3-(3-fluoro-4-methoxyphenyl)-8-(6-methylpyridin-3-yl)-4-oxo-3,4-dihydroquinazoline-6-carbonitrile] | 51 to 150 | 51 to 150
COc1ccc(-n2c([C@@H]3CCCN3)nc3c(C(F)(F)F)cc(C#N)cc3c2=O)cc1 [Example 75, (S)-3-(4-methoxyphenyl)-4-oxo-2-(pyrrolidin-2-yl)-8-(trifluoromethyl)-3,4-dihydroquinazoline-6-carbonitrile] | 51 to 150 | 51 to 150
COc1ccc(-n2c([C@@H]3CCCN3)nc3ccc([N+](=O)[O-])cc3c2=O)cc1 [Example 12, (S)-3-(4-methoxyphenyl)-6-nitro-2-(pyrrolidin-2-yl) quinazolin-4 (3H)-one] | 1 to 50 | 151 to 500
O=c1c2cc([N+](=O)[O-])ccc2nc([C@@H]2CCCN2C2CCOCC2)n1-c1ccccc1 [Example 6, (S)-6-nitro-3-phenyl-2-(1-(tetrahydro-2H-pyran-4-yl)pyrrolidin-2-yl)quinazolin-4 (3H)-one] | 501 to 1000 | > 1000
COc1c(F)cc(-n2c(C34CC(CN3)C4)nc3c(-c4cc(C)nc(C)c4)cc(C#N)cc3c2=O)cc1F [Example 174, 2-(2-azabicyclo[2.1.1]hexan-1-yl)-3-(3,5-difluoro-4-methoxyphenyl)-8-(2,6-dimethylpyridin-4-yl)-4-oxo-3,4-dihydroquinazoline-6-carbonitrile] | 51 to 150 | 51 to 150
COc1ccc(-n2c([C@H]3CCCN3)nc3c(-c4ccc(C)nc4)cc([N+](=O)[O-])cc3c2=O)cc1F [Example 92, (R)-3-(3-fluoro-4-methoxyphenyl)-8-(6-methylpyridin-3-yl)-6-nitro-2-(pyrrolidin-2-yl) quinazolin-4 (3H)-one] | 1 to 50 | 1 to 50
COc1c(F)cc(-n2c(C3CCCN3)nc3c(-c4ccc(C(C)(C)O)cc4)cc(C#N)cc3c2=O)cc1F (stereo not drawn) [Example 171, 3-(3,5-difluoro-4-methoxyphenyl)-8-(4-(2-hydroxypropan-2-yl)phenyl)-4-oxo-2-(pyrrolidin-2-yl)-3,4-dihydroquinazoline-6-carbonitrile] | 51 to 150 | 51 to 150
COc1ccc(-n2c([C@H]3CCCN3)nc3c(-c4ccnc(F)c4)cc([N+](=O)[O-])cc3c2=O)cc1F [Example 90, (R)-3-(3-fluoro-4-methoxyphenyl)-8-(2-fluoropyridin-4-yl)-6-nitro-2-(pyrrolidin-2-yl) quinazolin-4 (3H)-one] | 1 to 50 | 1 to 50
COc1c(F)cc(-n2c([C@H]3CCCN3)nc3c(-c4ccc(C)nc4)cc(C#N)cc3c2=O)cc1F [Example 119, (R)-3-(3,5-difluoro-4-methoxyphenyl)-8-(6-methylpyridin-3-yl)-4-oxo-2-(pyrrolidin-2-yl)-3,4-dihydroquinazoline-6-carbonitrile] | 1 to 50 | 1 to 50
COc1ccc(-n2c(C3C[C@@H]4CCC[C@@H]4N3)nc3c(-c4ccc(C)nc4)cc(C#N)cc3c2=O)cc1F (stereo partly drawn) [Example 140, 3-(3-fluoro-4-methoxyphenyl)-8-(6-methylpyridin-3-yl)-2-((3aS,6aS)-octahydrocyclopenta[b]pyrrol-2-yl)-4-oxo-3,4-dihydroquinazoline-6-carbonitrile] | 1 to 50 | 1 to 50
COc1ccc(-n2c([C@H]3CCCN3)nc3c(C)cc(C#N)cc3c2=O)cc1 [Example 50, (R)-3-(4-methoxyphenyl)-8-methyl-4-oxo-2-(pyrrolidin-2-yl)-3,4-dihydroquinazoline-6-carbonitrile] | 1 to 50 | 1 to 50
CN1CCC(N2CCC[C@H]2c2nc3ccc([N+](=O)[O-])cc3c(=O)n2-c2ccccc2)CC1 [Example 7, (S)-2-(1-(1-methylpiperidin-4-yl)pyrrolidin-2-yl)-6-nitro-3-phenylquinazolin-4 (3H)-one] | > 1000 | > 1000
COc1ccc(-n2c([C@@H]3CCNC3)nc3ccc([N+](=O)[O-])cc3c2=O)cc1 [Example 19, (R)-3-(4-methoxyphenyl)-6-nitro-2-(pyrrolidin-3-yl)quinazolin-4 (3H)-one] | 1 to 50 | 151 to 500
Cc1cc(-c2cc(C#N)cc3c(=O)n(-c4cc(F)c(N5CC6(COC6)C5)c(F)c4)c(C4CCCN4)nc23)cc(C)n1 (stereo not drawn) [Example 163, 3-(3,5-difluoro-4-(2-oxa-6-azaspiro[3.3]heptan-6-yl)phenyl)-8-(2,6-dimethylpyridin-4-yl)-4-oxo-2-(pyrrolidin-2-yl)-3,4-dihydroquinazoline-6-carbonitrile] | > 1000 | > 1000
COc1ccc(-n2c([C@H]3C[C@H](F)CN3)nc3c(C)cc([N+](=O)[O-])cc3c2=O)cc1F [Example 62, 2-((2R,4S)-4-fluoropyrrolidin-2-yl)-3-(3-fluoro-4-methoxyphenyl)-8-methyl-6-nitroquinazolin-4 (3H)-one] | 51 to 150 | 51 to 150
COc1ccc(-n2c(C3CCCN3)nc3c(C#Cc4ccc(C)nc4)cc(C#N)cc3c2=O)cc1F (stereo not drawn) [Example 194, 3-(3-Fluoro-4-methoxyphenyl)-8-((6-methylpyridin-3-yl)ethynyl)-4-oxo-2-(pyrrolidin-2-yl)-3,4-dihydroquinazoline-6-carbonitrile] | 51 to 150 | 51 to 150
O=c1c2cc([N+](=O)[O-])ccc2nc([C@H]2CCCN2C2CCOCC2)n1-c1ccccc1 [Example 3, (R)-6-nitro-3-phenyl-2-(1-(tetrahydro-2H-pyran-4-yl)pyrrolidin-2-yl) quinazolin-4 (3H)-one] | 501 to 1000 | > 1000
O=c1c2cc([N+](=O)[O-])ccc2nc([C@@H]2CCCN2)n1-c1ccc(OC(F)(F)F)cc1 [Example 46, (S)-6-nitro-2-(pyrrolidin-2-yl)-3-(4-(trifluoromethoxy)phenyl)quinazolin-4 (3H)-one] | > 1000 | > 1000
COCCOc1ccc(-c2cc(C#N)cc3c(=O)n(-c4ccc(OC)c(F)c4)c(C4CCCN4)nc23)cc1 (stereo not drawn) [Example 154, 3-(3-Fluoro-4-methoxyphenyl)-8-(4-(2-methoxyethoxy)phenyl)-4-oxo-2-(pyrrolidin-2-yl)-3,4-dihydroquinazoline-6-carbonitrile] | 1 to 50 | 1 to 50
COc1ccc(-n2c([C@H]3CCCN3)nc3ccc(F)c(F)c3c2=O)cc1 [Example 28, (R)-5,6-difluoro-3-(4-methoxyphenyl)-2-(pyrrolidin-2-yl) quinazolin-4 (3H)-one] | 151 to 500 | > 1000
COc1ccc(-n2c([C@H]3CCCN3)nc3c(N4CCOCC4)cc(C#N)cc3c2=O)cc1F [Example 113, (R)-3-(3-fluoro-4-methoxyphenyl)-8-morpholino-4-oxo-2-(pyrrolidin-2-yl)-3,4-dihydroquinazoline-6-carbonitrile] | 1 to 50 | 51 to 150
Cc1ccc(-c2cc(C#N)cc3c(=O)n(-c4ccc(O)c(F)c4)c([C@H]4CCCN4)nc23)cn1 [Example 167, (R)-3-(3-fluoro-4-hydroxyphenyl)-8-(6-methylpyridin-3-yl)-4-oxo-2-(pyrrolidin-2-yl)-3,4-dihydroquinazoline-6-carbonitrile] | 51 to 150 | 151 to 500

— US20220348558A1, “INHIBITORS OF ENCEPHALITIC ALPHAVIRUSES” (priority 2019, published 2022)
